# According to patent EP1007549B1, “COMPOSITIONS AND METHODS FOR HIGHLY EFFICIENT TRANSFECTION” (Innovata Plc, priority 1997, dated 2006):
# What was measured:
# human dendritic cells = assay: Transfection of human dendritic cells with pEGFP-N1, count of fluorescent positive cells; format: cell-based
# [1] = Photon correlation spectroscopy (PCS) particle size of K6CL22-DNA complexes; format: physicochemical; conditions: 150mM NaCl, one hour at room temperature, DNA 40 µg/ml
# Protocol: Complexes between K6CL22 and DNA were formed in the following way in a laminar flow hood: A stock solution of K6CL22 (typically 8-12mg/ml) was stored in water at -20°C. This was thawed and diluted to 4-400µg/ml in either 10mM HEPES pH7.4 (Hepes) or 10mM HEPES/150mM NaCl pH 7.4 (HBS). (It should be noted that these non-reducing conditions favor the formation of peptide dimers via disulfide bonding between peptides of cysteine residues in the peptide). A stock solution of pCMVβ plasmid DNA (typically 2-4mg/ml in either water or TE buffer) was diluted to 40 µg/ml in Hepes or HBS. Peptide (typically 0.4-1ml) was added to an equal volume of diluted DNA. Different target ratios of Peptide:DNA were achieved by varying the concentration of added peptide. Samples were immediately mixed by gently sucking up and down in a pipette tip and left to incubate at room temperature for a minimum of one hour or if required overnight at 4°C.
# In Fig. 1, peptide and DNA were mixed as described above and incubated over night at 4°C. The final DNA concentration was 40µg/ml. […]
# For PCS analysis the buffers used in the preparation of samples were filtered through 20nm filters. […] Samples were allowed to equilibrate to 25°C prior to measuring, and an average Zav was determined from a minimum of three measurements. […] Zav and intensity and volume distributions were determined using Malvern PC S software. […]
# Cos7 cells = assay: Transfection of Cos cells with pCMVβ, Galacto-Light β-galactosidase assay; format: cell-based, monkey; conditions: chloroquine, 5 hours, triplicate
# Protocol: The DNA and complex solutions were made as follows: • DNA solution: 100 µg/ml pCMVβ, 25 mM phosphate pH 7.4, 0.6 M NaCl. Complex solution: 100 µg/ml pCMVβ, 25 mM phosphate pH 7.4, 0.6 M NaCl, 200 µg/ml K6CL22. These solutions were incubated at room temperature for 1 hour and then 4°C overnight. Cos cells were seeded at 1×10^5 cells per well in 6 well plates (in DMEM, 10% Fetal calf serum (FCS)) 24 hours before incubation with complex or DNA.
# The DNA and complex solutions were diluted into PEG diluent (10% PEG 8000, 25 mM phosphate pH 7.4, 37.5 mM NaCl) to a final DNA concentration of 20 µg/ml. Just prior to transfection the Cos cells were washed with PBS and 875 µl RATQ medium (RAT medium with 137.14 µM chloroquine) was added per well. 125 µl of diluted complex or DNA solution was then added per well and the cells were incubated at 37°C for 5 hours. […] 100 µl of Reaction buffer is added to each tube, the samples are incubated at room temperature for 60 mins and then analyzed using Light Emission Accelerator and a Barthoid lumat LB 9501 luminometer. The protein concentration of the cleared cell lysate was measured using the Bio-Rad DC protein assay kit (Bio-Rad). The results are then expressed as relative light units per mg of protein (Figure 7). […]
# KLN 205 cells [2] = assay: Transfection of KLN 205 cells, luminescence and X-gal; format: cell-based, mouse; conditions: for % expressing cells / average light units: 120 µM chloroquine, 2 µg DNA/well; for average light units: charge ratio +2
# KLN 205 cells [3] = assay: Uptake of YOYO-1 labelled DNA complexes by KLN 205 cells (FACScan); format: cell-based, mouse
# Protocol: KLN 205 cells were plated at a density of 1.5×10^5 cells per well in 6 well plates one day prior to the addition of DNA. Plasmid DNA (pCMVgal) was labeled with the fluorescent dye: YOYO-1 (Molecular Probes, Eugene, OR) at a ratio of 1 dye molecule per 100 bp (i.e. 1.5 µl of a 10 µM YOYO-1 solution per µg of DNA). The DNA was diluted to 40 µg/ml with 10 mM HEPES, pH 7.3. […] The transfection complex solution was left for 1 hour at room temperature before it was applied to the cells in EMEM/120 µM chloroquine with or without FCS at a DNA concentration of 2 µg/well (i.e. 100 µl of complex added to 900 µl medium for one well). After 4 hours of incubation at 37°C the cells were washed twice with PBS and harvested with Trypsin/EDTA. The cell associated fluorescence was analyzed using a FACScan (Becton Dickinson).
# HepG2 cells = assay: Transfection of HepG2 cells in the presence of serum; format: cell-based; conditions: 10% FCS, optimum charge ratio for each peptide, pCMVβ
# Protocol: These transfection complexes were then tested for their comparative ability to transfect HepG2 cells in the presence of 10% FCS (Figure 32).
structure (smiles),measurement,setting,value
CC[C@H](C)[C@H](NC(=O)[C@H](CC(N)=O)NC(=O)[C@H](CS)NC(=O)[C@H](CCSC)NC(=O)[C@H](CCCNC(=N)N)NC(=O)[C@H](CCC(=O)O)NC(=O)[C@H](Cc1ccc(O)cc1)NC(=O)[C@H](C)NC(=O)[C@H](CO)NC(=O)[C@H](CCCNC(=N)N)NC(=O)[C@@H](NC(=O)[C@H](CCCCN)NC(=O)[C@H](CCCNC(=N)N)NC(=O)CNC(=O)[C@H](CC(N)=O)NC(=O)[C@H](CCC(=O)O)NC(=O)CNC(=O)[C@H](CCCNC(=N)N)NC(=O)[C@H](Cc1c[nH]c2ccccc12)NC(=O)[C@H](Cc1ccccc1)NC(=O)CNC(=O)[C@H](CC(C)C)NC(=O)[C@H](Cc1ccccc1)NC(=O)CNC(=O)CNC(=O)[C@H](CCCCN)NC(=O)[C@H](CCCCN)NC(=O)[C@H](CCCCN)NC(=O)[C@H](CCCCN)NC(=O)[C@H](CCCCN)NC(=O)[C@H](CCCCN)NC(=O)[C@H](CCCCN)NC(=O)[C@H](CCCCN)NC(=O)[C@H](CCCCN)NC(=O)[C@H](CCCCN)NC(=O)[C@H](CCCCN)NC(=O)[C@@H](N)CCCCN)[C@@H](C)O)C(=O)N[C@@H](CC(C)C)C(=O)N[C@@H](CCCCN)C(=O)NCC(=O)N[C@@H](CCCCN)C(=O)O [CL26],"transfection efficiency, CL26-complexed versus CL22-complexed DNA","human dendritic cells; Figure 35, peptide/DNA ratio between 1 and 1.8",higher efficiency
same,"transfection efficiency, CL26-complexed versus CL22-complexed DNA",human dendritic cells; Figures 33 and 34,higher efficiency
CC[C@H](C)[C@H](NC(=O)[C@H](CC(N)=O)NC(=O)[C@H](CS)NC(=O)[C@H](CCSC)NC(=O)[C@H](CCCNC(=N)N)NC(=O)[C@H](CCC(=O)O)NC(=O)[C@H](Cc1ccc(O)cc1)NC(=O)[C@H](C)NC(=O)[C@H](CO)NC(=O)[C@H](CCCNC(=N)N)NC(=O)[C@@H](NC(=O)[C@H](CCCCN)NC(=O)[C@H](CCCNC(=N)N)NC(=O)CNC(=O)[C@H](CC(N)=O)NC(=O)[C@H](CCC(=O)O)NC(=O)CNC(=O)[C@H](CCCNC(=N)N)NC(=O)[C@H](Cc1c[nH]c2ccccc12)NC(=O)[C@H](Cc1ccccc1)NC(=O)CNC(=O)[C@H](CC(C)C)NC(=O)[C@H](Cc1ccccc1)NC(=O)CNC(=O)CNC(=O)[C@H](CCCCN)NC(=O)[C@H](CCCCN)NC(=O)[C@H](CCCCN)NC(=O)[C@H](CCCCN)NC(=O)[C@H](CCCCN)NC(=O)[C@@H](N)CCCCN)[C@@H](C)O)C(=O)N[C@@H](CC(C)C)C(=O)N[C@@H](CCCCN)C(=O)NCC(=O)N[C@@H](CCCCN)C(=O)O [K6CL22 monomer],"transfection of dendritic cells, monomer versus dimer",human dendritic cells; peptide/DNA ratio between 2.0 and 4.0,transfects dendritic cells poorly compared with CL22 dimer
same,effect of FCS on transfection efficiency,human dendritic cells; presence of FCS compared to absence of FCS,greatly reduced
CC[C@H](C)[C@H](NC(=O)[C@H](CC(N)=O)NC(=O)[C@H](CS)NC(=O)[C@H](CCSC)NC(=O)[C@H](CCCNC(=N)N)NC(=O)[C@H](CCC(=O)O)NC(=O)[C@H](Cc1ccc(O)cc1)NC(=O)[C@H](C)NC(=O)[C@H](CO)NC(=O)[C@H](CCCNC(=N)N)NC(=O)[C@@H](NC(=O)[C@H](CCCCN)NC(=O)[C@H](CCCNC(=N)N)NC(=O)CNC(=O)[C@H](CC(N)=O)NC(=O)[C@H](CCC(=O)O)NC(=O)CNC(=O)[C@H](CCCNC(=N)N)NC(=O)[C@H](Cc1c[nH]c2ccccc12)NC(=O)[C@H](Cc1ccccc1)NC(=O)CNC(=O)[C@H](CC(C)C)NC(=O)[C@H](Cc1ccccc1)NC(=O)CNC(=O)CNC(=O)[C@H](CCCCN)NC(=O)[C@H](CCCCN)NC(=O)[C@H](CCCCN)NC(=O)[C@H](CCCCN)NC(=O)[C@H](CCCCN)NC(=O)[C@@H](N)CCCCN)[C@@H](C)O)C(=O)N[C@@H](CC(C)C)C(=O)N[C@@H](CCCCN)C(=O)NCC(=O)N[C@@H](CCCCN)C(=O)O [K6CL22],size of large particles/aggregates of complex,[1],approx. 1000 nm
same,"transfection of Cos cells (β-galactosidase, relative light units per mg of protein)",Cos7 cells,very efficient transfection
same,"transfection efficiency, CL22-complexed versus CL26-complexed DNA","human dendritic cells; Figure 35, peptide/DNA ratio between 2 and 2.6",greater
same,gene expression compared to NBC32 complexed plasmid DNA,KLN 205 cells [2],higher
same,% expressing cells,KLN 205 cells [2]; absence of FCS,35%
same,average light units,KLN 205 cells [2]; absence of FCS,3000 x 10^6 RLU
same,% expressing cells,KLN 205 cells [2]; presence of FCS,5%
same,average light units,KLN 205 cells [2]; presence of FCS,77 x 10^6 RLU
same,uptake of complexed DNA compared to DNA complexed with a polylysine peptide,"KLN 205 cells [3]; charge ratio +2, 120 µM chloroquine, 4 hours",taken up as efficiently
same,"uptake of complexed DNA compared to a polylysine peptide, presence of FCS",KLN 205 cells [3]; in the presence of FCS,less than that of a polylysine peptide
same,transfection compared with polylysine peptides or a histone based peptide,HepG2 cells,greater
